{"source": "paper PMC6096483", "about": "“Structural studies of the unusual metal-ion site of the GH124 endoglucanase from Ruminiclostridium thermocellum” (Acta Crystallographica. Section F, Structural Biology …, 2018)", "target": "T1, RtGH124 (GH124 endoglucanase GH124A) (Acetivibrio thermocellus, UniProt A3DCJ4)", "T1 construct": "gene Cthe_0435; GH124 catalytic domain without dockerin; E. coli BL21(DE3)pLysS; N-terminal His6-3C tag cleaved, leaving GPA before […]; ends ...DRSNPWEIYY; 25304 Da calculated; His264 partially 2-oxohistidine", "T1 sequence (A3DCJ4 entry or part of it)": "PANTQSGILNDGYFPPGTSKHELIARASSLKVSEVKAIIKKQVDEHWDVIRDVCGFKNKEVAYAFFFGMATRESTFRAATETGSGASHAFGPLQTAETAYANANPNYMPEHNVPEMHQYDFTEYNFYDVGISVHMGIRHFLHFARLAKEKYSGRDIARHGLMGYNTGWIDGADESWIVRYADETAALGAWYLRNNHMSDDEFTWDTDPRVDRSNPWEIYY", "test": "X-ray crystallography (co-crystallization, […] A)", "type": "binding", "conditions": "active site, two cellotrioses on either side of catalytic Glu203; Mn2+ at distant metal site; Tacsimate pH 5.0; 6.7 mM ligand"}
{"smiles": "OC[C@H]1O[C@@H](O[C@H]2[C@H](O)[C@@H](O)[C@H](O[C@H]3[C@H](O)[C@@H](O)C(O)O[C@@H]3CO)O[C@@H]2CO)[C@H](O)[C@@H](O)[C@@H]1O", "note": "(stereo partly shown) [G3, cellotriose]", "values": [{"measurement": "X-ray crystallography (co-crystallization, 1.03 A)", "value": "Structures of RtGH124 co-crystallized with cellotriose (G3) showed an active site with two cellotrioses"}]}
